Assay: Saturation solubility in water (HPLC)
Assay type: physicochemical
Details: for Saturation solubility: stirring at room temperature for 12 h, HPLC
Text: Test product: the crystal form M, crystal form CS1, crystal form CS9 and crystal form K of the compound of the formula (I), preparation methods thereof being respectively shown in Example 1, Comparative example 1, Comparative example 2 and Comparative example 3.
The operating conditions of HPLC were as follows: • Instrument: high performance liquid chromatograph (model: Thermo U3000) • Chromatographic column: Agilent C18 column (5 μm, 150 mm×4.6 mm) • Mobile phase composition and gradient elution procedure:
• Detection wavelength: 260.4 nm • Flow rate: 1 mL/min • Injection volume: 15 μL • Column temperature: 30° C.

Structure (SMILES) | Saturation solubility [µg/mL] | Saturation solubility compared with those of the crystal form K, the crystal form CS1 and the crystal form CS9 (result in words)
O=C(O)CNC(=O)C1C(=O)N(C2CCCCC2)C(=O)N(C2CCCCC2)C1=O [Crystal form CS1, N-[(1,3-dicyclohexylhexahydro-2,4,6-trioxo-5-pyrimidinyl)carbonyl]glycine, reference compound] | 24.48 | –
O=C(O)CNC(=O)C1C(=O)N(C2CCCCC2)C(=O)N(C2CCCCC2)C1=O [Crystal form CS9, N-[(1,3-dicyclohexylhexahydro-2,4,6-trioxo-5-pyrimidinyl)carbonyl]glycine, reference compound] | 19.4 | –
O=C(O)CNC(=O)C1C(=O)N(C2CCCCC2)C(=O)N(C2CCCCC2)C1=O [Crystal form K, N-[(1,3-dicyclohexylhexahydro-2,4,6-trioxo-5-pyrimidinyl)carbonyl]glycine] | 23.36 | –
O=C(O)CNC(=O)C1C(=O)N(C2CCCCC2)C(=O)N(C2CCCCC2)C1=O [Crystal form M, N-[(1,3-dicyclohexylhexahydro-2,4,6-trioxo-5-pyrimidinyl)carbonyl]glycine] | 42.47 | significantly higher

— patent US12583823B2, “Crystal form of Daprodustat, preparation method therefor and use thereof” (priority 2019, dated 2026)
